Measured values reported in US11458189B2, “Cytoprotective drugs” (BALMES TRANSPLANTATION, priority 2017, dated 2022).
Starred links: 1 amine or outer side, 2 acyl side, 3 side chain; linkers in the order of their positions; H or OH if unused. Positions of bridges follow the written chain, without caps; N, C: chain ends. Non-standard residues stand in square brackets, D forms with d. Residues, ends and D or L forms follow the SMILES beside them. *: point of attachment. hTyr(3S-OH,4S-OH,3'-OSO3H) = N[C@H](C(=O)O)[C@H](O)[C@@H](O)c1ccc(O)c(OS(=O)(=O)O)c1; Orn(4R-OH,5R-OH) = O=C([C@H](C[C@@H](O)[C@@H](O)N[*:3])N[*:1])[*:2]; Pro(3S-OH,4S-Me) = C[C@H]1CN[C@H](C(=O)O)[C@H]1O; X1 = CCCCCOc1ccc(-c2cc(-c3ccc(C(=O)*)cc3)no2)cc1; Gln(3R-OH) = NC(=O)C[C@@H](O)[C@H](N)C(=O)O; Hyp = O=C(O)[C@@H]1C[C@@H](O)CN1

Test system: Human Renal Glomerular Endothelial Cells (HRGEC)
Test: Oxygen and glucose deprivation followed by replenishment, cell survival (calcein AM), HRGEC
Assay type: cell-based
Description: Anidulafungin and micafungin were tested on Human Renal Glomerular Endothelial Cells (HRGEC, Innoprot P10665), on Human Renal Proximal Tubular Epithelial Cells (HRPTEpiC, Innoprot P10662), on Human Astrocytes (HA, caltag SC-1800), on Human Cardiac Microvascular Endothelial Cells (HCMEC, Caltag SC-6000), on Human Hepatic Sinusoidal Endothelial Cells (HHSEC, Caltag SC-5000), on Rat Primary Kidney Glomerular Endothelial cells (Cellbiologics, RN-6014G) and on Bovine Brain Microvascular Endothelial Cells (BBMEC, Caltag SC-B100).
In a first phase, these isolated, purified and cryopreserved cells are thawed and multiplied according to the supplier's recommendations in T75 or T175 flasks pre-coated with 2 μg of fibronectin/[…] (CORNING) for HRGEC, HCMEC, HHSEC and BBMEC, or 2 μg poly-L-lysin/cm^2 (Caltag SC-0403) for HRPTEpiC and HA, or 15 mL/flask 175 cm^2 gelatin-based solution (Cellbiologics) in the presence of endothelial cell supplemented growth medium ECM (P60104, INNOPROT, Caltag, SC-1001) for HRGEC, HCMEC, HHSEC, RPKGEC or BBMEC, or astrocyte cell supplemented growth medium AM (Caltag SC-1801) for HA or epithelial cell supplemented growth medium EpiCM (P60106, INNOPROT) for HRPTEpiC, at 37° C. under 5% CO2 and saturated humidity until their confluency. They are then harvested by trypsinization according to the method described by the supplier for exactly 5 minutes and then reseeded in new flasks a maximum of three times.
To carry out the oxygen and glucose deprivation test followed by their replenishment, the cells will be seeded in 96-well black plates with transparent flat bottom (GREINER). Once a sufficient number of cells has been obtained to allow seeding of 2000 to 15000 cells per well of 96-well plates depending on the cell type, the cells are seeded in these 96-well plates previously coated with an extracellular matrix as listed above for the flasks. The cells are cultured for 5 to 8 days according to the cell type, in the presence of the same growth medium as in the flask as described above except for HRGEC and HRPTEpiC for which DMEM (DUTSCHER) with 1 g/L of supplemented glucose is used, at 37° C. under 5% CO2 and saturated humidity to obtain confluency.
On the first day of oxygen and glucose deprivation, (5th, 6th, 7th or 8th day of culture), the culture conditions are drastically changed. The medium of all plates is removed and replaced by DMEM (DUTSCHER) medium without glucose and supplemented only with 1% penicillin-streptomycin (DUTSCHER). Anidulafungin or micafungin dissolved in dimethyl sulfoxide (DMSO) is then added to each well at the desired concentration, resulting in a maximum of 1% DMSO, and the plates are placed under hypoxia at <1% 02 and 5% CO2 at 37° C. for 24 hours of culture. Each compound was tested in a concentration range.
After 24 hours, the growth medium is changed and replaced by a richer medium, DMEM (DUTSCHER) at 1 g/L glucose and 2% FBS (INNOPROT) and 1% penicillin-streptomycin (DUTSCHER). These media will have been pre-equilibrated at 37° C. in advance. The cells are then returned to culture at 37° C. under 20% 02 and 5% CO2 for 22h.
After 22 hours of reoxygenation, the potential protective effect of anidulafungin or micafungin is measured by a cell viability test using calcein AM (CORNING), which is a dye substrate. The calcein AM can easily cross the cell membrane of the viable cells. The AM ester groups mask the part of the molecule that chelates calcium. Once inside the cells, the (non-fluorescent) calcein AM is hydrolyzed to (fluorescent) calcein by endogenous esterases. The resulting calcein molecule binds to calcium inside the cell and remains trapped inside the cell. These molecules emit strong green fluorescence when subjected to […] of a particular wavelength (495 nm). Since dead cells lack esterase activity, only living cells are labelled.
This cell viability test is performed in two steps. […]

For `CCCCCOc1ccc(-c2cc(-c3ccc(C(=O)N[C@H]4C[C@@H](O)[C@@H](O)NC(=O)[C@@H]5[C@@H](O)[C@@H](C)CN5C(=O)[C@H]([C@H](O)CC(N)=O)NC(=O)[C@H]([C@H](O)[C@@H](O)c5ccc(O)c(OS(=O)(=O)O)c5)NC(=O)[C@@H]5C[C@@H](O)CN5C(=O)[C@H]([C@@H](C)O)NC4=O)cc3)no2)cc1` [Micafungin, {5-[(1S,2S)-2-[(3S,6S,9S,11R,15S,18S,20R,21R,24S,25S,26S)-3-[(1R)-2-carbamoyl-1-hydroxyethyl]-11,20,21,25-tetrahydroxy-15-[(1R)-1-hydroxyethyl]-26-methyl-2,5,8,14,17,23-hexaoxo-18-[(4-{5-[4-(pentyloxy)phenyl]-1,2-oxazol-3-yl}benzene)amido]-1,4,7,13,16,22-hexaazatricyclo[22.3.0.0]heptacosan-6-yl]-1,2-dihydroxyethyl]-2-hydroxyphenyl}oxidanesulfonic acid] (X1-[Orn(4R-OH,5R-OH)]T[Hyp][hTyr(3S-OH,4S-OH,3'-OSO3H)][Gln(3R-OH)][Pro(3S-OH,4S-Me)]; lactam 1-C), the “Globalfluo assay 1” value ([Micafungin] log μM −4) was 11181240 arbitrary units, the “Globalfluo assay 2” value ([Micafungin] log μM −4) was 11805530 arbitrary units and the “Globalfluo assay 3” value ([Micafungin] log μM −4) was 11095570 arbitrary units. For the same compound, the Mean globalfluo ([Micafungin] log μM −4) was 11360780 arbitrary units, the “Survival rate (%)” value ([Micafungin] log μM −4) was 37% and the “Globalfluo assay 1” value ([Micafungin] log μM −4.124939) was 12113050 arbitrary units. For the same compound, the “Globalfluo assay 2” value ([Micafungin] log μM −4.124939) was 11168770 arbitrary units, the “Globalfluo assay 3” value ([Micafungin] log μM −4.124939) was 11691720 arbitrary units and the Mean globalfluo ([Micafungin] log μM −4.124939) was 11657847 arbitrary units. The “Survival rate (%)” value ([Micafungin] log μM −4.124939) was 38%, the “Globalfluo assay 1” value ([Micafungin] log μM −4.30103) was 10705920 arbitrary units and the “Globalfluo assay 2” value ([Micafungin] log μM −4.30103) was 12585990 arbitrary units. The “Globalfluo assay 3” value ([Micafungin] log μM −4.30103) was 12661760 arbitrary units, the Mean globalfluo ([Micafungin] log μM −4.30103) was 11984557 arbitrary units and the “Survival rate (%)” value ([Micafungin] log μM −4.30103) was 40%. The “Globalfluo assay 1” value ([Micafungin] log μM −4.39794) was 12034270 arbitrary units, the “Globalfluo assay 2” value ([Micafungin] log μM −4.39794) was 11904770 arbitrary units and the “Globalfluo assay 3” value ([Micafungin] log μM −4.39794) was 11704580 arbitrary units. For the same compound, the Mean globalfluo ([Micafungin] log μM −4.39794) was 11881207 arbitrary units, the “Survival rate (%)” value ([Micafungin] log μM −4.39794) was 39% and the “Globalfluo assay 1” value ([Micafungin] log μM −4.522879) was 9416001 arbitrary units. For the same compound, the “Globalfluo assay 2” value ([Micafungin] log μM −4.522879) was 11987430 arbitrary units, the “Globalfluo assay 3” value ([Micafungin] log μM −4.522879) was 10070420 arbitrary units and the Mean globalfluo ([Micafungin] log μM −4.522879) was 10491284 arbitrary units. The “Survival rate (%)” value ([Micafungin] log μM −4.522879) was 34%, the “Globalfluo assay 1” value ([Micafungin] log μM −4.60206) was 10458840 arbitrary units and the “Globalfluo assay 2” value ([Micafungin] log μM −4.60206) was 10594720 arbitrary units. For the same compound, the “Globalfluo assay 3” value ([Micafungin] log μM −4.60206) was 8636463 arbitrary units, the Mean globalfluo ([Micafungin] log μM −4.60206) was 9896674 arbitrary units and the “Survival rate (%)” value ([Micafungin] log μM −4.60206) was 31%. For the same compound, the “Globalfluo assay 1” value ([Micafungin] log μM −4.69897) was 8790971 arbitrary units, the “Globalfluo assay 2” value ([Micafungin] log μM −4.69897) was 10993750 arbitrary units and the “Globalfluo assay 3” value ([Micafungin] log μM −4.69897) was 9050581 arbitrary units. For the same compound, the Mean globalfluo ([Micafungin] log μM −4.69897) was 9611767 arbitrary units, the “Survival rate (%)” value ([Micafungin] log μM −4.69897) was 30% and the “Globalfluo assay 1” value ([Micafungin] log μM −4.823909) was 9039973 arbitrary units. For the same compound, the “Globalfluo assay 2” value ([Micafungin] log μM −4.823909) was 8208392 arbitrary units, the “Globalfluo assay 3” value ([Micafungin] log μM −4.823909) was 7686254 arbitrary units and the Mean globalfluo ([Micafungin] log μM −4.823909) was 8311540 arbitrary units. The “Survival rate (%)” value ([Micafungin] log μM −4.823909) was 25%, the “Globalfluo assay 1” value ([Micafungin] log μM −5) was 5367938 arbitrary units and the “Globalfluo assay 2” value ([Micafungin] log μM −5) was 7594623 arbitrary units. The “Globalfluo assay 3” value ([Micafungin] log μM −5) was 5742300 arbitrary units, the Mean globalfluo ([Micafungin] log μM −5) was 6234954 arbitrary units and the “Survival rate (%)” value ([Micafungin] log μM −5) was 16%. The “Globalfluo assay 1” value ([Micafungin] log μM −5.09691) was 5198634 arbitrary units, the “Globalfluo assay 2” value ([Micafungin] log μM −5.09691) was 5680528 arbitrary units and the “Globalfluo assay 3” value ([Micafungin] log μM −5.09691) was 4518691 arbitrary units. The Mean globalfluo ([Micafungin] log μM −5.09691) was 5132618 arbitrary units, the “Survival rate (%)” value ([Micafungin] log μM −5.09691) was 11% and the “Globalfluo assay 1” value ([Micafungin] log μM −5.221849) was 5545222 arbitrary units. For the same compound, the “Globalfluo assay 2” value ([Micafungin] log μM −5.221849) was 4844574 arbitrary units, the “Globalfluo assay 3” value ([Micafungin] log μM −5.221849) was 4333143 arbitrary units and the Mean globalfluo ([Micafungin] log μM −5.221849) was 4907646 arbitrary units. The “Survival rate (%)” value ([Micafungin] log μM −5.221849) was 10%, the “Globalfluo assay 1” value ([Micafungin] log μM −5.39794) was 3889914 arbitrary units and the “Globalfluo assay 2” value ([Micafungin] log μM −5.39794) was 3964004 arbitrary units. For the same compound, the “Globalfluo assay 3” value ([Micafungin] log μM −5.39794) was 4064339 arbitrary units, the Mean globalfluo ([Micafungin] log μM −5.39794) was 3972752 arbitrary units and the “Survival rate (%)” value ([Micafungin] log μM −5.39794) was 7%. The “Globalfluo assay 1” value ([Micafungin] log μM −5.69897) was 3399775 arbitrary units, the “Globalfluo assay 2” value ([Micafungin] log μM −5.69897) was 3118863 arbitrary units and the “Globalfluo assay 3” value ([Micafungin] log μM −5.69897) was 3166056 arbitrary units. For the same compound, the Mean globalfluo ([Micafungin] log μM −5.69897) was 3228231 arbitrary units, the “Survival rate (%)” value ([Micafungin] log μM −5.69897) was 4% and the “Globalfluo assay 1” value ([Micafungin] log μM −6) was 3157528 arbitrary units. For the same compound, the “Globalfluo assay 2” value ([Micafungin] log μM −6) was 2851345 arbitrary units, the “Globalfluo assay 3” value ([Micafungin] log μM −6) was 2667237 arbitrary units and the Mean globalfluo ([Micafungin] log μM −6) was 2892037 arbitrary units. The “Survival rate (%)” value ([Micafungin] log μM −6) was 2%, the “Globalfluo assay 1” value ([Micafungin] log μM −6.30103) was 2192241 arbitrary units and the “Globalfluo assay 2” value ([Micafungin] log μM −6.30103) was 2496288 arbitrary units. For the same compound, the “Globalfluo assay 3” value ([Micafungin] log μM −6.30103) was 2306718 arbitrary units, the Mean globalfluo ([Micafungin] log μM −6.30103) was 2331749 arbitrary units and the “Survival rate (%)” value ([Micafungin] log μM −6.30103) was 0%. For the same compound, the “Globalfluo assay 1” value ([Micafungin] log μM −7) was 2276775 arbitrary units, the “Globalfluo assay 2” value ([Micafungin] log μM −7) was 2276419 arbitrary units and the “Globalfluo assay 3” value ([Micafungin] log μM −7) was 1622516 arbitrary units. The Mean globalfluo ([Micafungin] log μM −7) was 2058570 arbitrary units and the “Survival rate (%)” value ([Micafungin] log μM −7) was −1%.
